According to publication PMC7754465, “Multiparameter Kinetic Analysis for Covalent Fragment Optimization by Using Quantitative Irreversible Tethering (qIT)” (Chembiochem, 2020):
Read-outs that look alike come from different tables or passages of the source.

Target: T1, Cdk2(ES) = Cdk2(F80C,C177A) (Homo sapiens, UniProt P24941, C177A/F80C)
T1 construct: GST (N, cleaved yes); made in house; host or cells: E. coli Tuner(DE3)
Test: quantitative irreversible tethering (qIT): rate of cysteine modification of Cdk2(ES)
Format: binding
Conditions: for rate enhancement factor (REF): rate with Cdk2(ES) relative to rate with GSH, thiol 5 μM
Experimental: Figure 2 Comparison of previous and current applications of Quantitative irreversible tethering (qIT). a) Overview of rate determination. A cysteine‐containing biomolecule is treated with covalent fragments under pseudo‐first‐order conditions. Reaction progress is followed by discrete measurement of free cysteine concentration by using the fluorogenic probe CPM, and rate constants (k obs) are derived from exponential regression analysis. b) Comparison of the reactivity profile of each fragment with the POI and GSH typically classes them as unreactive, reactive but non‐selective or reactive and selective. c) Quantification of kinetic POI/GSH selectivity facilitates hit identification. d) The observed rate of reaction between the POI and hit fragment is determined at a range of ligand concentrations by using qIT. Subsequent hyperbolic regression analysis is used to derive K i and k inact to facilitate comprehensive covSAR analysis.
Therefore, we set out to develop novel classes of electrophile sensitive kinase inhibitors using a covalent fragment approach. Accordingly, we screened a 138‐member library of diverse cysteine‐reactive fragments at 500 μM against Cdk2(ES) and GSH by using the qIT platform and monitored the kinetics of cysteine‐modification over 24 hours. […] Using three standard deviations over the geometric mean REF as the statistical cut‐off for defining hit fragments (REF >27.9) yielded two acrylamide fragments, tetrahydroquinoline 1 (REF=81) and pyrimidine S1 (REF=64) for further investigation (Figures 3c and S2). […]
D. Rate determination by qIT
Reaction-plate setup: Each well of a 96-well PCR plate was charged with 60–100 µL of target thiol (GSH or protein, 10 µM) and 4% w/v TCEP-agarose beads in 100 mM phosphate buffer (pH 7.5 or 8) and cooled to 4 °C. Reactions were started by addition of an equal volume of pre-cooled electrophile solution (1 mM, 2% DMSO) in 0.1 M phosphate buffer (final concentra-tion: thiol = 5 µM, electrophile = 0.5 mM, 2% w/v TCEP-agarose beads), with a minimum of 4 wells per plate used as DMSO/thiol only controls. After mixing, TCEP-agarose was pelleted by centrifugation (1,300 rpm, 1 min) and the plate incu-bated at 4 °C. CPM Quench: At a series of time points (typically around 0.25, 0.5, 1, 2, 6, 24, 48, 72 and 120 hours after reac-tion initiation), 3 µL aliquots of each reaction were quenched into a 384-well fluorescence plate (Corning – black, NBS) where each well was charged with 27 µL of CPM solution (1.39 µM) in 100 mM phosphate buffer (pH 7.5) (final concentration: thiol = 0.5 µM, CPM = 1.25 µM). Quenching was typically performed in duplicate and fluorescence plates were incubated at room temperature for 60 minutes before fluorescence intensity (excitation/emission: 384/470 nm) was measured on an EnVisionTM plate reader. Analysis: All analysis was performed using Prism 8.0 software (GraphPad). For each time point, the fluorescence of each reaction was normalized relative Cdk2(ES)/GSH only control = maximum signal, DMSO only = minimum signal. The normalized fluorescence for each reaction was plotted against time. A one phase exponential decay was fitted to each plot (Constraints: Y(0) > 0.8; 0 < plateau = 0), yielding a pseudo first-order rate constant.
Cdk2 mutations were introduced by PCR and cloned into pGEX6P1 Cdk2 (552), a gift from Jonathon Pines (Addgene plasmid # 61845) used to express GST-Cdk2(WT). GST-Cdk2(ES) = GST-Cdk2(F80C,C177A). All constructs were verified by se-quencing. pGEX6P1 cyclin A2 (amino acids 173-432) was generated by PCR and restriction digestion. GST-CAK1 was con-structed by PCR amplification of S.cerevisiae genomic DNA and the product cloned into pKEG-KG. All protein expression was performed using an adapted autoinduction protocol:[8] Plasmids were transformed into E. coli Tuner(DE3) and cultures grown in autoinduction media at 37 °C until OD600 = 0.9. The cultures were then incubated at 18 °C for a further 40 hours before […]

[1] = fragment 0.5 mM, Cdk2(ES) 5 μM, read-out: Cdk2(ES): kobs/[I]

kinact/KI at 500 µM [1] [M⁻¹ s⁻¹] | kinact/KI at 500 µM (Cdk2(ES) (5 μM) + 6 (500 μM), Figure 6c, read-out: kobs/[I] with Cdk2(ES)) [M⁻¹ s⁻¹] | covalent SAR by REF-based qIT analysis (compared with acrylamide 1 or parent analogue) | rate of reaction with Cdk2(ES) relative to acrylamide 1 (qIT) | Structure (SMILES) | rate enhancement factor (REF) (fragment 0.5 mM)
 |  |  |  | C=CC(=O)Nc1ccc(-c2ncccn2)cc1 [S1] | 64
1.31 |  |  |  | C=CC(=O)N1CCCc2cc(C(=O)OC)ccc21 [compound 1] | 81
0.1 | 0.105 | maintained a similar REF | ten times more slowly than acrylamide 1 | C=CC(=O)N1CCN(CC)c2ccccc21 [compound 6] | 
